This assay deals with T1, Human M4 (Homo sapiens, UniProt P08173).
T1 construct: expressed in transfected cells
T1 sequence (P08173 1-479): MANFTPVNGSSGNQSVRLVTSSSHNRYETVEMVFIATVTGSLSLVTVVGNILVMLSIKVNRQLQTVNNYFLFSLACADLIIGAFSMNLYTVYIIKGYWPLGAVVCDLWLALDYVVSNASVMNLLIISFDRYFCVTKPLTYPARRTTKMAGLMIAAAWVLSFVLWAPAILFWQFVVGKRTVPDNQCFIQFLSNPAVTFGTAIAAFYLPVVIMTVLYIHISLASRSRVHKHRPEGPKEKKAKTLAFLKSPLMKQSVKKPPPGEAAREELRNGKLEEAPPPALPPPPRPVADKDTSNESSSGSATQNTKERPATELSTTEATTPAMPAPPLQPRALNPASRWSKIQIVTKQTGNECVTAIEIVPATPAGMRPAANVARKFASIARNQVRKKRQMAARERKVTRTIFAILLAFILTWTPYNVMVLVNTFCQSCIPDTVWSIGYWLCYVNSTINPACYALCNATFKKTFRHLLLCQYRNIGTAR
In words: mAChR M4 cell-based functional assay (calcium flux, potentiation of EC20 acetylcholine response), hM4-Gqi5 CHO-K1 cells. The note with it: for Emax / Emax at 30 µM: CHO-K1; for EC50: hM4-Gqi5 CHO-K1 cells, calcium flux, PAM of EC20 acetylcholine, read-out: Human M4 EC50; for Emax at 30 µM: % ACh maximum at 30 μM, human M4, read-out: Emax. On the procedure:
Human and rat M4 cDNAs, along with the chimeric G protein Gqi5, were transfected into Chinese hamster ovary (CHO-K1) cells purchased from the American Type Culture Collection using Lipofectamine2000. hM4-Gqi5 cells were grown in Ham's F-12 medium containing 10% heat-inactivated fetal bovine serum (FBS), 20 mM HEPES, 50 μg/mL G418 sulfate, and 500 μg/mL Hygromycin B. rM4-Gqi5 cells were grown in DMEM containing 10% heat-inactivated FBS, 20 mM HEPES, 400 μg/mL G418 sulfate, and 500 μg/mL Hygromycin B.
For high throughput measurement of agonist-evoked increases in intracellular calcium, CHO-K1 cells stably expressing muscarinic receptors were plated in growth medium lacking G418 and hygromycin at 15,000 cells/20 μL/well in Greiner 384-well black-walled, tissue culture (TC)-treated, clear-bottom plates (VWR). Cells were incubated overnight at 37° C. and 5% CO2. The next day, cells were washed using an ELX 405 (BioTek) with assay buffer; the final volume was then aspirated to 20 μL. Next, 20 μL of a 2.3 μM stock of Fluo-4/acetoxymethyl ester (Invitrogen, Carlsbad, CA), prepared as a 2.3 mM stock in DMSO and mixed in a 1:1 ratio with 10% (w/v) Pluronic F-127 and diluted in assay buffer, was added to the wells and the cell plates were incubated for 50 min at 37° C. and 5% CO2. Dye was removed by washing with the ELX 405 and the final volume was aspirated to 20 μL. Compound master plates were formatted in an 11 point concentration-response curve (CRC) format (1:3 dilutions) in 100% DMSO with a starting concentration of 10 mM using a BRAVO liquid handler (Agilent). Test compound CRCs were then transferred to daughter plates (240 nL) using the Echo acoustic plate reformatter (Labcyte, Sunnyvale, CA) and then diluted into assay buffer (40 μL) to a 2× stock using a Thermo Fisher Combi (Thermo Fisher Scientific, Waltham, MA).
Calcium flux was measured using the Functional Drug Screening System (FDSS) 6000 or 7000 (Hamamatsu Corporation, Tokyo, Japan) as an increase in the fluorescent static ratio. Compounds were applied to cells (20 μL, 2×) using the automated system of the FDSS at 2-4 seconds into the protocol and the data were collected at 1 Hz. At 144 seconds, 10 μL of an EC20 concentration of the muscarinic receptor agonist acetylcholine was added (5×), followed by the addition of 12 μL of an EC80 concentration of acetylcholine at the 230 second time point (5×). Agonist activity was analyzed as a concentration-dependent increase in calcium mobilization upon compound addition. Positive allosteric modulator activity was analyzed as a concentration-dependent increase in the EC20 acetylcholine response. Antagonist activity was analyzed as a concentration-dependent decrease in the EC80 acetylcholine response. Concentration-response curves were generated using a four-parameter logistical equation in XLFit curve fitting software (IDBS, Bridgewater, NJ) for Excel (Microsoft, Redmond, WA) or Prism (GraphPad Software, Inc., San Diego, CA).
Compounds were synthesized as described above. Activity (EC50 and Emax) was determined in the mAChR M4 cell-based functional assay as described above and the data are shown in Tables 2-4. The compound number corresponds to the compound numbers used in Table 1.

Each structure is given as a SMILES string.

What is called Emax is the greatest response seen or fitted, relative to the assay's reference. The term EC50 denotes the concentration giving half of the maximal effect.

In the case of `Cc1c(N2CCc3ncccc3C2)nn2cnnc2c1C` [Compound 1, 6-(7,8-dimethyl-[1,2,4]triazolo[4,3-b]pyridazin-6-yl)-7,8-dihydro-5H-1,6-naphthyridine], the Emax stood at 97% and the EC50 was 3.97 µM.

In the case of `Cc1c(N2CCc3ncc(-c4ccn(C)n4)cc3C2)nn2cnnc2c1C` [Compound 2, 6-(7,8-dimethyl-[1,2,4]triazolo[4,3-b]pyridazin-6-yl)-3-(1-methylpyrazol-3-yl)-7,8-dihydro-5H-1,6-naphthyridine], the Emax at 30 µM worked out at 102% and the EC50 was 0.628 µM.

As to `Cc1c(N2CCc3ncc(C#N)cc3C2)nn2cnnc2c1C` [Compound 3, 6-(7,8-Dimethyl-[1,2,4]triazolo[4,3-b]pyridazin-6-yl)-7,8-dihydro-5H-1,6-naphthyridine-3-carbonitrile], the Emax came out at 69% and the concentration giving a half-maximal response (EC50) was determined as 4.51 µM.

Take `Cc1c(N2CCc3ncc(Oc4ccc(F)cc4)cc3C2)nn2cnnc2c1C` [Compound 4, 6-(7,8-dimethyl-[1,2,4]triazolo[4,3-b]pyridazin-6-yl)-3-(4-fluorophenoxy)-7,8-dihydro-5H-1,6-naphthyridine]: the Emax at 30 µM came out at 87% and the EC50 stood at 0.322 µM.

With `Cc1cnc2c(c1)CN(c1nn3cnnc3c(C)c1C)CC2` [Compound 5, 6-(7,8-Dimethyl-[1,2,4]triazolo[4,3-b]pyridazin-6-yl)-3-methyl-7,8-dihydro-5H-1,6-naphthyridine], the Emax came to 95% and the EC50 came to 0.23 µM.

Consider `Cc1c(N2CCc3ncc(Oc4ccc(OC(F)(F)F)c(F)c4)cc3C2)nn2cnnc2c1C` [Compound 6, 6-(7,8-dimethyl-[1,2,4]triazolo[4,3-b]pyridazin-6-yl)-3-[3-fluoro-4-(trifluoromethoxy)phenoxy]-7,8-dihydro-5H-1,6-naphthyridine], for which the Emax at 30 µM came out at 33% and the EC50 was determined as 3.62 µM.

As to `Cc1c(N2CCc3ncc(Oc4ccc5c(c4)OCCO5)cc3C2)nn2cnnc2c1C` [Compound 7, 3-(2,3-dihydro-1,4-benzodioxin-6-yloxy)-6-(7,8-dimethyl-[1,2,4]triazolo[4,3-b]pyridazin-6-yl)-7,8-dihydro-5H-1,6-naphthyridine], the Emax at 30 µM turned out to be 63% and the EC50 came out at 0.295 µM.

Take `Cc1c(N2CCc3ncc(Oc4ccc5c(cnn5C)c4)cc3C2)nn2cnnc2c1C` [Compound 8, 6-(7,8-dimethyl-[1,2,4]triazolo[4,3-b]pyridazin-6-yl)-3-(1-methylindazol-5-yl)oxy-7,8-dihydro-5H-1,6-naphthyridine]: the Emax at 30 µM came out at 68% and the EC50 was 0.2 µM.

Turning to `Cc1c(N2CCc3ncc(-c4cncs4)cc3C2)nn2cnnc2c1C` [Compound 9, 5-[6-(7,8-dimethyl-[1,2,4]triazolo[4,3-b]pyridazin-6-yl)-7,8-dihydro-5H-1,6-naphthyridin-3-yl]thiazole], the maximal response (Emax) at 30 µM stood at 79% and the EC50 came to 0.0943 µM.

Take `Cc1noc(C)c1-c1cnc2c(c1)CN(c1nn3cnnc3c(C)c1C)CC2` [Compound 10, 4-[6-(7,8-dimethyl-[1,2,4]triazolo[4,3-b]pyridazin-6-yl)-7,8-dihydro-5H-1,6-naphthyridin-3-yl]-3,5-dimethyl-isoxazole]: the Emax at 30 µM is 78% and the EC50 came out at 0.212 µM.

For the compound `COc1ccc(Oc2cnc3c(c2)CN(c2nn4cnnc4c(C)c2C)CC3)cc1Cl` [Compound 11, 3-(3-chloro-4-methoxy-phenoxy)-6-(7,8-dimethyl-[1,2,4]triazolo[4,3-b]pyridazin-6-yl)-7,8-dihydro-5H-1,6-naphthyridine], the Emax at 30 µM turned out to be 57% and the half-maximal effective concentration (EC50) is 1.04 µM.

As to `COc1ccc(Oc2cnc3c(c2)CN(c2nn4cnnc4c(C)c2C)CC3)cc1` [Compound 12, 6-(7,8-Dimethyl-[1,2,4]triazolo[4,3-b]pyridazin-6-yl)-3-(4-methoxyphenoxy)-7,8-dihydro-5H-1,6-naphthyridine], the Emax at 30 µM was determined as 76% and the EC50 worked out at 0.191 µM.

Regarding `Cc1c(N2CCc3ncc(-c4ccnn4C(C)C)cc3C2)nn2cnnc2c1C` [Compound 13, 6-(7,8-Dimethyl-[1,2,4]triazolo[4,3-b]pyridazin-6-yl)-3-(2-isopropylpyrazol-3-yl)-7,8-dihydro-5H-1,6-naphthyridine], the maximum response (Emax) came out at 62% and the EC50 stood at 0.285 µM.

As to `Cc1c(N2CCc3ncc(NC(=O)C4CC4)cc3C2)nn2cnnc2c1C` [Compound 14, N-[6-(7,8-dimethyl-[1,2,4]triazolo[4,3-b]pyridazin-6-yl)-7,8-dihydro-5H-1,6-naphthyridin-3-yl]cyclopropanecarboxamide], the Emax at 30 µM stood at 76% and the EC50 was found to be 1.15 µM.

As for `Cc1c(N2CCc3ncc(NC(=O)C4COC4)cc3C2)nn2cnnc2c1C` [Compound 15, N-[6-(7,8-Dimethyl-[1,2,4]triazolo[4,3-b]pyridazin-6-yl)-7,8-dihydro-5H-1,6-naphthyridin-3-yl]oxetane-3-carboxamide], the Emax was found to be 68% and the EC50 was 5.87 µM.

For the compound `Cc1c(N2CCc3ncc(N4CCCCC4)cc3C2)nn2cnnc2c1C` [Compound 16, 6-(7,8-dimethyl-[1,2,4]triazolo[4,3-b]pyridazin-6-yl)-3-(1-piperidyl)-7,8-dihydro-5H-1,6-naphthyridine], the Emax at 30 µM amounted to 89% and the EC50 is 0.789 µM.

In the case of `Cc1c(N2CCc3ncc(NCc4ccc(C(C)(C)O)cc4)cc3C2)nn2cnnc2c1C` [Compound 17, 2-[4-[[[6-(7,8-dimethyl-[1,2,4]triazolo[4,3-b]pyridazin-6-yl)-7,8-dihydro-5H-1,6-naphthyridin-3-yl]amino]methyl]phenyl]propan-2-ol], the Emax at 30 µM was 66% and the EC50 stood at 0.936 µM.

With `Cc1c(N2CCc3ncc(NCc4cccc(F)c4)cc3C2)nn2cnnc2c1C` [Compound 18, 6-(7,8-dimethyl-[1,2,4]triazolo[4,3-b]pyridazin-6-yl)-N-[(3-fluorophenyl)methyl]-7,8-dihydro-5H-1,6-naphthyridin-3-amine], the Emax at 30 µM stood at 47% and the EC50 is 0.798 µM.

As to `Cc1c(N2CCc3ncc(-c4ccns4)cc3C2)nn2cnnc2c1C` [Compound 19, 5-[6-(7,8-dimethyl-[1,2,4]triazolo[4,3-b]pyridazin-6-yl)-7,8-dihydro-5H-1,6-naphthyridin-3-yl]isothiazole], the Emax at 30 µM came to 106% and the EC50 came to 0.0493 µM.

On to `Cc1c(N2CCc3ncc(-c4cnn(C5CCCCC5)c4)cc3C2)nn2cnnc2c1C` [Compound 20, 3-(1-cyclohexylpyrazol-4-yl)-6-(7,8-dimethyl-[1,2,4]triazolo[4,3-b]pyridazin-6-yl)-7,8-dihydro-5H-1,6-naphthyridine], for which the Emax at 30 µM came to 71% and the EC50 amounted to 0.331 µM.

Take `Cc1c(N2CCc3ncc(-c4cnn(CC5CC5)c4)cc3C2)nn2cnnc2c1C` [Compound 21, 3-[1-(cyclopropylmethyl)pyrazol-4-yl]-6-(7,8-dimethyl-[1,2,4]triazolo[4,3-b]pyridazin-6-yl)-7,8-dihydro-5H-1,6-naphthyridine]: the Emax at 30 µM was 82% and the EC50 was found to be 0.162 µM.
